The values that follow come from ChEMBL document CHEMBL5108048, “Potent GCN2 Inhibitor Capable of Reversing MDSC-Driven T Cell Suppression Demonstrates In Vivo Efficacy as a Single Agent and in Combination with Anti-Angiogenesis Therapy” (J Med Chem, 2022).

Each structure is given as a SMILES string.

Data set [1] addresses T1, eIF-2-alpha kinase GCN2 (Homo sapiens, UniProt Q9P2K8). Nature of the data set: Inhibition of GCN2 (unknown origin).
Data set [2] deals with T1, eIF-2-alpha kinase GCN2. Nature of the data set: Inhibition of GCN2 in human SK-OV-3 cells assessed as reduction in phosphorylation of eIF2alpha by cellular assay. Format: cell-based.
Data set [3] is described as follows: Oral bioavailability in Sprague-Dawley rat at 2 mg/kg. To be noted: in vivo. The format is ADME, organism-based.
Data set [4] is described as follows: […] in Sprague-Dawley rat […] assessed as half life at 0.5 mg/kg,iv. The format is ADME, organism-based.
A short description of data set [5]: AUC (0-infinity) in Sprague-Dawley rat at 2 mg/kg,po. Set-up: time infinity, dose 2 mg/kg, route po. To be noted: in vivo. Format: ADME, organism-based.

T1 sequence (Q9P2K8 whole entry): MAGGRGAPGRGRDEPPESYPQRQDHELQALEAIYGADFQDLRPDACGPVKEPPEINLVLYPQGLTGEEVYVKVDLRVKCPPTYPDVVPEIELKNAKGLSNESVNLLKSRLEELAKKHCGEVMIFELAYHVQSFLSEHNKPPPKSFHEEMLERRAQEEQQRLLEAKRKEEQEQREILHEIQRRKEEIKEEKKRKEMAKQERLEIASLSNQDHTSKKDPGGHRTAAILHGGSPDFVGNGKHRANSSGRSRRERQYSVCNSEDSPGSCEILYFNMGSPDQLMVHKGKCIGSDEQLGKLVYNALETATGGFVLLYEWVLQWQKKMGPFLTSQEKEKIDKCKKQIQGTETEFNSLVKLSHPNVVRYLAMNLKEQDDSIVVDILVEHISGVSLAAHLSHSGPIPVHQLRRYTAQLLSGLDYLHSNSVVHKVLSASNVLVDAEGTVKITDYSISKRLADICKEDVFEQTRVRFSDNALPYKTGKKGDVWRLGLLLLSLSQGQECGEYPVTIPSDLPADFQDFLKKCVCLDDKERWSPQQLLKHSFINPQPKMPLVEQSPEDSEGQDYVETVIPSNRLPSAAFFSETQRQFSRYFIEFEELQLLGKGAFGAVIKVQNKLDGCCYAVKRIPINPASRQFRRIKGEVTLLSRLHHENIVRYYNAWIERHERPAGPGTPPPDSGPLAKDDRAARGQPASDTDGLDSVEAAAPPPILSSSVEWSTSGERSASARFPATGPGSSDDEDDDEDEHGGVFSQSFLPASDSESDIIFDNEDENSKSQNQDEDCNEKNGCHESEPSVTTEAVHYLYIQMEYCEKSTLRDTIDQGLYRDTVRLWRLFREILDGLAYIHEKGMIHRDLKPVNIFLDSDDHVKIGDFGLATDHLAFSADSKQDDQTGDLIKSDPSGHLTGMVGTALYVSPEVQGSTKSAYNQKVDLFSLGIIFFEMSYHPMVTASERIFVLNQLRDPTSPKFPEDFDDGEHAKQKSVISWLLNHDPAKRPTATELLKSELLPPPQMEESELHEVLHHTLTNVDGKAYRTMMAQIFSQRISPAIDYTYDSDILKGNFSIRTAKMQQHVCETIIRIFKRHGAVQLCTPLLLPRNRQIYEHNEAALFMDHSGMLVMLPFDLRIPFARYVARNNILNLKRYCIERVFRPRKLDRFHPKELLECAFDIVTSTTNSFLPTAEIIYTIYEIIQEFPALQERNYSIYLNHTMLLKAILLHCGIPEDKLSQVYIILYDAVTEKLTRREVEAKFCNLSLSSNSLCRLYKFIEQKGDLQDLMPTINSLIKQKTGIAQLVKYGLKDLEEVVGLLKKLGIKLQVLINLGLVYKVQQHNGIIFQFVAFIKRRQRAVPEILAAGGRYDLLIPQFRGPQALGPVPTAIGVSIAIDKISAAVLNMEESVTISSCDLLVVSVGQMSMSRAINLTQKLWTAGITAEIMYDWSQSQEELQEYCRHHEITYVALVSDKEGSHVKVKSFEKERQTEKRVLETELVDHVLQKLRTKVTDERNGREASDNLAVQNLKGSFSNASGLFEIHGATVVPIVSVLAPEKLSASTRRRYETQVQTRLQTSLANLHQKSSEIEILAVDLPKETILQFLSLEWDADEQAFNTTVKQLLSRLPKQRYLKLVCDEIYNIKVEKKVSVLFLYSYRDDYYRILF

The IC50 is the point on the concentration scale where inhibition reaches its midpoint. As to `COCCNC(=O)[C@H]1CC[C@H](Nc2ncc3c(Br)nn(-c4ccc5ncccc5c4)c3n2)C1`, the values for the IC50 at eIF-2-alpha kinase GCN2 [1] and on eIF-2-alpha kinase GCN2 [2] were 144 nM and 183 nM, respectively.

Regarding `CNC(=O)[C@]1(C)CC[C@@H](Nc2ncc3c(Br)nn(-c4ccc(-c5nnc(C)s5)c(CC#N)c4)c3n2)C1`, the IC50 at eIF-2-alpha kinase GCN2 [1] was 78 nM.

As to `CNC(=O)[C@]1(C)CC[C@@H](Nc2ncc3c(Br)nn(-c4ccc(-c5nnc(C)s5)cc4F)c3n2)C1`, the IC50 on eIF-2-alpha kinase GCN2 [1] was 359 nM.

`CCn1cc(Nc2ncc3c(C)nn(-c4ccc(C#N)cc4)c3n2)cn1`: on eIF-2-alpha kinase GCN2 [1], half-maximal inhibition (IC50) required 56 nM.

For the compound `CNC(=O)[C@]1(C)CC[C@@H](Nc2ncc3c(Br)nn(-c4ccc(-c5nnc(C)o5)cc4)c3n2)C1`, the IC50 against eIF-2-alpha kinase GCN2 [1] and at eIF-2-alpha kinase GCN2 [2] was 16 nM each time.

The compound `FC(F)(F)c1nn(-c2ccc3ncccc3c2)c2nc(Nc3cnn(C4CCNCC4)c3)ncc12` came in with an IC50 against eIF-2-alpha kinase GCN2 [1] of 168 nM.

In turn, `Clc1nn(-c2ccc3ncccc3c2)c2nc(Nc3cnn(C4CCNCC4)c3)ncc12` yielded an IC50 on eIF-2-alpha kinase GCN2 [1] of 5 nM.

As to `COCCC(=O)N[C@@H]1CC[C@@H](Nc2ncc3c(Br)nn(-c4ccc5ncccc5c4)c3n2)C1`, the figures for the IC50 against eIF-2-alpha kinase GCN2 [1] and on eIF-2-alpha kinase GCN2 [2] were 74 nM and 159 nM, respectively.

As for `CNC(=O)[C@]1(C)CC[C@@H](Nc2ncc3c(Br)nn(-c4ccc(-c5nnc(C)s5)c(F)c4)c3n2)C1`, the results for the IC50 at eIF-2-alpha kinase GCN2 [1] and at eIF-2-alpha kinase GCN2 [2] were 8 nM and 33 nM, respectively.

In turn, `CNC(=O)[C@]1(C)CC[C@@H](Nc2ncc3c(Br)nn(-c4ccc(-c5cnc(C)s5)cc4)c3n2)C1` displayed an IC50 against eIF-2-alpha kinase GCN2 [1] of 27 nM.

As a reminder, the bioavailability is dose-corrected exposure relative to a reference, in per cent. A low value points to little systemic uptake. The half-life is the time in which the quantity being followed falls by half. The AUC(0-inf) is the area under the concentration-time curve extrapolated to infinity. In the case of `CNC(=O)[C@]1(C)CC[C@@H](Nc2ncc3c(Br)nn(-c4ccc(-c5nnc(C)s5)c(CCO)c4)c3n2)C1`, the bioavailability in data set [3] was determined as 15%. Besides, the half-life in data set [4] amounted to 47 min. This compound also gave an AUC(0-inf) in data set [5] of 518 ng·h/mL. The IC50 against eIF-2-alpha kinase GCN2 [1] came to 16 nM; on eIF-2-alpha kinase GCN2 [2], 25 nM.

For the compound `CNC(=O)[C@]1(C)CC[C@@H](Nc2ncc3c(Br)nn(-c4ccc(-c5nnc(C)s5)c(CCN)c4)c3n2)C1`, the IC50 against eIF-2-alpha kinase GCN2 [1] was 15 nM; at eIF-2-alpha kinase GCN2 [2], 240 nM.

As for `CCn1cc(Nc2ncc3c(C)nn(-c4ccc(OC)cc4)c3n2)cn1`, it took 81 nM to reach half-maximal inhibition against eIF-2-alpha kinase GCN2 [1] (IC50).

For `CNC(=O)[C@]1(C)CC[C@@H](Nc2ncc3c(Br)nn(-c4ccc(-c5nnc(C)s5)c(S(C)(=O)=O)c4)c3n2)C1`, the midpoint of inhibition against eIF-2-alpha kinase GCN2 [1], the IC50, lay at 61 nM.

`CNC(=O)[C@]1(C)CC[C@@H](Nc2ncc3c(Br)nn(-c4ccc(-c5ncc(C)s5)cc4)c3n2)C1` showed an IC50 on eIF-2-alpha kinase GCN2 [1] of 76 nM.

`COCCNC(=O)[C@@H]1CC[C@@H](Nc2ncc3c(Br)nn(-c4ccc5ncccc5c4)c3n2)C1`: the IC50 worked out at 5 nM against eIF-2-alpha kinase GCN2 [1] and 20 nM on eIF-2-alpha kinase GCN2 [2].

The compound `CNC(=O)[C@]1(C)CC[C@@H](Nc2ncc3c(Br)nn(-c4ccc(-c5nnc(C)s5)c(CNS(C)(=O)=O)c4)c3n2)C1` had an IC50 at eIF-2-alpha kinase GCN2 [1] of 109 nM.

Consider `COCCNC(=O)[C@@H]1CC[C@H](Nc2ncc3c(Br)nn(-c4ccc5ncccc5c4)c3n2)C1`, for which 923 nM corresponded to half-maximal inhibition at eIF-2-alpha kinase GCN2 [1] (IC50).

For the compound `CNC(=O)[C@]1(C)CC[C@@H](Nc2ncc3c(Br)nn(-c4ccc5ncccc5c4)c3n2)C1`, the results for the IC50 on eIF-2-alpha kinase GCN2 [1] and at eIF-2-alpha kinase GCN2 [2] were 17 nM and 21 nM, respectively.

On eIF-2-alpha kinase GCN2 [1], `CCn1cc(Nc2ncc3cccc(-c4ccc(OC)cc4)c3n2)cn1` came in with an IC50 above 1000 nM.

Regarding `CNC(=O)[C@]1(C)CC[C@@H](Nc2ncc3c(Br)nn(-c4ccc(-c5nnc(C)s5)c(C#N)c4)c3n2)C1`, in data set [3], the bioavailability was 39%. Moreover, the half-life in data set [4] turned out to be 51 min. Also, in data set [5], the AUC(0-inf) was found to be 1150 ng·h/mL. Also, the IC50 stood at 8 nM against eIF-2-alpha kinase GCN2 [1] and 35 nM on eIF-2-alpha kinase GCN2 [2].

`CCn1cc(Nc2ccn3ncc(-c4ccc(OC)cc4)c3n2)cn1` had an IC50 against eIF-2-alpha kinase GCN2 [1] above 1000 nM.

`Brc1nn(-c2ccc3ncccc3c2)c2nc(N[C@@H]3CC[C@@H](c4ncc[nH]4)C3)ncc12` (relative stereo): the figures for the IC50 at eIF-2-alpha kinase GCN2 [1] and at eIF-2-alpha kinase GCN2 [2] were 21 nM and 545 nM, respectively.

Compound `CNC(=O)[C@]1(C)CC[C@@H](Nc2ncc3c(Br)nn(-c4ccc(-c5nnc(C)s5)c(CS(C)(=O)=O)c4)c3n2)C1` came in with an IC50 at eIF-2-alpha kinase GCN2 [1] of 211 nM.

As for `Cc1nn(-c2ccc3ncccc3c2)c2nc(Nc3cnn(C4CCNCC4)c3)ncc12`, on eIF-2-alpha kinase GCN2 [1], the IC50 is 11 nM.

Consider `CNS(=O)(=O)[C@@H]1CC[C@@H](Nc2ncc3c(Br)nn(-c4ccc5ncccc5c4)c3n2)C1`, for which the IC50 against eIF-2-alpha kinase GCN2 [1] amounted to 43 nM; at eIF-2-alpha kinase GCN2 [2], 106 nM.

As for `COCCS(=O)(=O)N[C@@H]1CC[C@@H](Nc2ncc3c(Br)nn(-c4ccc5ncccc5c4)c3n2)C1` (relative stereo), the IC50 against eIF-2-alpha kinase GCN2 [1] came out at 55 nM; at eIF-2-alpha kinase GCN2 [2], 262 nM.

With `CCn1cc(Nc2ncc3cccc(Nc4ccc(OC)cc4)c3n2)cn1`, at eIF-2-alpha kinase GCN2 [1], the IC50 was above 1000 nM.

As to `COCCNC(=O)[C@H]1CC[C@H](Nc2ncc3c(Br)nn(-c4ccc5ncccc5c4)c3n2)CC1`, the figures for the 50% inhibitory concentration (IC50) against eIF-2-alpha kinase GCN2 [1] and on eIF-2-alpha kinase GCN2 [2] were 159 nM and 628 nM, respectively.

Turning to `COCCNC(=O)[C@H]1CC[C@@H](Nc2ncc3c(Br)nn(-c4ccc5ncccc5c4)c3n2)C1`, the IC50 against eIF-2-alpha kinase GCN2 [1] worked out at 61 nM; at eIF-2-alpha kinase GCN2 [2], 156 nM.

With `Brc1nn(-c2ccc3ncccc3c2)c2nc(Nc3cnn(C4CCNCC4)c3)ncc12`, the IC50 was 3 nM against eIF-2-alpha kinase GCN2 [1] and 610 nM on eIF-2-alpha kinase GCN2 [2].

On to `CNC(=O)[C@]1(C)CC[C@@H](Nc2ncc3c(Br)nn(-c4ccc(-c5nnc(C)s5)c(CO)c4)c3n2)C1`, for which the IC50 against eIF-2-alpha kinase GCN2 [1] worked out at 91 nM.

`COCCNC(=O)CCNc1ncc2c(Br)nn(-c3ccc4ncccc4c3)c2n1` had an IC50 against eIF-2-alpha kinase GCN2 [1] above 1000 nM.

Take `CCn1cc(Nc2ncc3ccn(-c4ccc(OC)cc4)c3n2)cn1`: the IC50 against eIF-2-alpha kinase GCN2 [1] was determined as 405 nM.

In data set [3], `CNC(=O)[C@]1(C)CC[C@@H](Nc2ncc3c(Br)nn(-c4ccc(-c5nnc(C)s5)c(CCS(C)(=O)=O)c4)c3n2)C1` came in with a bioavailability of 3%. The half-life in data set [4] worked out at 39 min. The compound further displayed an AUC(0-inf) in data set [5] of 26 ng·h/mL. Further, the IC50 was 2 nM on eIF-2-alpha kinase GCN2 [1] and 9 nM on eIF-2-alpha kinase GCN2 [2].

`CNC(=O)[C@]1(C)CC[C@@H](Nc2ncc3c(Br)nn(-c4ccc(-c5nnc(C)s5)c(CCC#N)c4)c3n2)C1` yielded a bioavailability in data set [3] of 42%. The half-life in data set [4] is 13 min. The AUC(0-inf) in data set [5] came to 1900 ng·h/mL. Also, the results for the IC50 on eIF-2-alpha kinase GCN2 [1] and on eIF-2-alpha kinase GCN2 [2] were 10 nM and 29 nM, respectively.

`COCCNC(=O)CNc1ncc2c(Br)nn(-c3ccc4ncccc4c3)c2n1` returned an IC50 on eIF-2-alpha kinase GCN2 [1] above 1000 nM.

`CCn1cc(Nc2ncc3c(C)nn(-c4ccc5ncccc5c4)c3n2)cn1`: the IC50 against eIF-2-alpha kinase GCN2 [1] came out at 23 nM.

In turn, `CCn1cc(Nc2ncc3cnn(-c4ccc(OC)cc4)c3n2)cn1` returned an IC50 on eIF-2-alpha kinase GCN2 [1] of 133 nM.

Take `CNC(=O)[C@@H]1CC[C@@H](Nc2ncc3c(Br)nn(-c4ccc5ncccc5c4)c3n2)C1`: the values for the IC50 against eIF-2-alpha kinase GCN2 [1] and on eIF-2-alpha kinase GCN2 [2] were 21 nM and 25 nM, respectively.

Take `COCCNC(=O)[C@H]1CC[C@@H](Nc2ncc3c(Br)nn(-c4ccc5ncccc5c4)c3n2)CC1`: the IC50 on eIF-2-alpha kinase GCN2 [1] turned out to be 211 nM; on eIF-2-alpha kinase GCN2 [2] it was 763 nM.

In the case of `COCc1noc([C@@H]2CC[C@@H](Nc3ncc4c(Br)nn(-c5ccc6ncccc6c5)c4n3)C2)n1`, the IC50 against eIF-2-alpha kinase GCN2 [1] was 106 nM.

For `CNC(=O)[C@]1(C)CC[C@@H](Nc2ncc3c(Br)nn(-c4ccc(-c5nnc(C)s5)c(CCN(C)C)c4)c3n2)C1`, the IC50 on eIF-2-alpha kinase GCN2 [1] amounted to 29 nM.

Turning to `COCCNC(=O)[C@H]1C[C@H](Nc2ncc3c(Br)nn(-c4ccc5ncccc5c4)c3n2)C1`, the IC50 at eIF-2-alpha kinase GCN2 [1] came to 40 nM; on eIF-2-alpha kinase GCN2 [2], 86 nM.

Take `CS(=O)(=O)N1CC[C@@H](Nc2ncc3c(Br)nn(-c4ccc5ncccc5c4)c3n2)C1`: the results for the IC50 against eIF-2-alpha kinase GCN2 [1] and at eIF-2-alpha kinase GCN2 [2] were 90 nM and 378 nM, respectively.
